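96-well plates; 48 h exposure; 5 concentrations. Endpoints by linear interpolation between flanking doses. Not reached: highest tested concentration assigned. GI50: concentration for 50% inhibition of growth.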 Calls of active or inactive are those of the source. Rule as the data show it: active = GI50 up to about 1.1 µM and inactive = higher.
Legend:
Test in all cases: NCI-60 cell line screen, 48 h
OVCAR-3 = test system: OVCAR-3
UO-31 = test system: UO-31
CCRF-CEM = test system: CCRF-CEM
NCI-H522 = test system: NCI-H522
HL-60 = test system: HL-60
SNB-75 = test system: SNB-75
K562 = test system: K562
SF-295 = test system: SF-295
A498 = test system: A498
SN12C = test system: SN12C
786-0 = test system: 786-0
SK-MEL-28 = test system: SK-MEL-28
A549 = test system: A549
SK-MEL-2 = test system: SK-MEL-2
KM12 = test system: KM12
RXF 393 = test system: RXF 393
NCI/ADR-RES = test system: NCI/ADR-RES
MCF7 = test system: MCF7
MDA-MB-231 = test system: MDA-MB-231

| SMILES | GI50 (OVCAR-3) | GI50 (UO-31) | GI50 (CCRF-CEM) | GI50 (NCI-H522) | GI50 (HL-60) | GI50 (SNB-75) | GI50 (K562) | GI50 (SF-295) | GI50 (A498) | GI50 (SN12C) | GI50 (786-0) | GI50 (SK-MEL-28) | GI50 (A549) | GI50 (SK-MEL-2) | GI50 (KM12) | GI50 (RXF 393) | GI50 (NCI/ADR-RES) | GI50 (MCF7) | GI50 (MDA-MB-231) |
| --- | --- | --- | --- | --- | --- | --- | --- | --- | --- | --- | --- | --- | --- | --- | --- | --- | --- | --- | --- |
| COC(=O)C1CC(C(=O)OC)c2nc3cc(C)c(C)cc3nc21 (stereo unspecified) | > 100 µM (inactive) | > 100 µM (inactive) | > 100 µM (inactive) | > 100 µM (inactive) | > 100 µM (inactive) | 36.3 µM (inactive) | > 100 µM (inactive) | > 100 µM (inactive) | > 100 µM (inactive) | > 100 µM (inactive) | > 100 µM (inactive) | > 100 µM (inactive) | > 100 µM (inactive) | > 100 µM (inactive) | > 100 µM (inactive) | – | – | – | – |
| CCOc1ccccc1/N=N/c1ccc2oc(=O)c(C(C)=O)cc2c1 | > 100 µM (inactive) | > 100 µM (inactive) | > 100 µM (inactive) | 58.9 µM (inactive) | > 100 µM (inactive) | 16 µM (inactive) | > 100 µM (inactive) | 41.4 µM (inactive) | > 100 µM (inactive) | > 100 µM (inactive) | 54.6 µM (inactive) | > 100 µM (inactive) | > 100 µM (inactive) | 71 µM (inactive) | > 100 µM (inactive) | – | – | – | – |
| O=C1CCC2(c3ccccc3)OCC([C@@H](O)c3ccccc3)N12 (stereo partly specified) | > 100 µM (inactive) | – | > 100 µM (inactive) | – | – | > 100 µM (inactive) | > 100 µM (inactive) | > 100 µM (inactive) | > 100 µM (inactive) | > 100 µM (inactive) | > 100 µM (inactive) | > 100 µM (inactive) | > 100 µM (inactive) | > 100 µM (inactive) | > 100 µM (inactive) | > 100 µM (inactive) | – | – | – |
| C[N+](C)(C)CC1CCCC/C1=N\O (stereo unspecified) | > 100 µM (inactive) | > 100 µM (inactive) | > 100 µM (inactive) | > 100 µM (inactive) | > 100 µM (inactive) | – | > 100 µM (inactive) | > 100 µM (inactive) | > 100 µM (inactive) | > 100 µM (inactive) | > 100 µM (inactive) | > 100 µM (inactive) | > 100 µM (inactive) | > 100 µM (inactive) | > 100 µM (inactive) | > 100 µM (inactive) | – | – | – |
| CC(C)C1CNC2N1C(=O)C2(C)OCc1ccccc1 (stereo unspecified) | > 100 µM (inactive) | 81.5 µM (inactive) | > 100 µM (inactive) | – | > 100 µM (inactive) | 48.2 µM (inactive) | > 100 µM (inactive) | > 100 µM (inactive) | > 100 µM (inactive) | > 100 µM (inactive) | > 100 µM (inactive) | > 100 µM (inactive) | > 100 µM (inactive) | > 100 µM (inactive) | – | > 100 µM (inactive) | – | – | – |
| O=C(O)C1OC(Oc2cc(O)c3c(=O)cc(-c4ccc(O)cc4)oc3c2)C(O)C(O)C1O (stereo unspecified) | > 100 µM (inactive) | > 100 µM (inactive) | – | > 100 µM (inactive) | > 100 µM (inactive) | > 100 µM (inactive) | – | > 100 µM (inactive) | – | > 100 µM (inactive) | 77.3 µM (inactive) | > 100 µM (inactive) | > 100 µM (inactive) | > 100 µM (inactive) | > 100 µM (inactive) | – | – | – | – |
| O=C(/C=C/c1c(O)ccc2ccccc12)c1cccc(O)c1 | > 76.9 µM (inactive) | > 100 µM (inactive) | 30.1 µM (inactive) | 63.4 µM (inactive) | 20.7 µM (inactive) | 71.6 µM (inactive) | 44.3 µM (inactive) | > 100 µM (inactive) | > 100 µM (inactive) | > 100 µM (inactive) | > 100 µM (inactive) | > 100 µM (inactive) | > 100 µM (inactive) | 42.3 µM (inactive) | > 100 µM (inactive) | > 77.4 µM (inactive) | – | – | – |
| COc1cc(NCC(C#N)C#N)ccc1/N=N/c1ccc(Cl)cc1 | 20.6 µM (inactive) | 16.9 µM (inactive) | 18.9 µM (inactive) | 16.6 µM (inactive) | – | 31.6 µM (inactive) | 22.1 µM (inactive) | 22.3 µM (inactive) | 44.7 µM (inactive) | 38.8 µM (inactive) | 20 µM (inactive) | 27.2 µM (inactive) | 33.4 µM (inactive) | 21.7 µM (inactive) | 14.2 µM (inactive) | 43.6 µM (inactive) | – | – | – |
| COC(=O)C1=CCON(c2ccccc2)C1c1ccccc1 (stereo unspecified) | > 100 µM (inactive) | 36.1 µM (inactive) | 47.4 µM (inactive) | 20.7 µM (inactive) | 24.9 µM (inactive) | 49.5 µM (inactive) | 40.4 µM (inactive) | – | – | > 10 µM (inactive) | > 100 µM (inactive) | 43.5 µM (inactive) | 40.2 µM (inactive) | 65.8 µM (inactive) | 45 µM (inactive) | 48 µM (inactive) | – | – | – |
| O=C1C2=C(c3ccccc31)C(c1ccccc1)NC(S)=N2 (stereo unspecified) | 31.6 µM (inactive) | > 100 µM (inactive) | 30.1 µM (inactive) | 33.7 µM (inactive) | 17.9 µM (inactive) | 14.4 µM (inactive) | 22.3 µM (inactive) | 31.9 µM (inactive) | > 100 µM (inactive) | > 100 µM (inactive) | 27.4 µM (inactive) | 49.1 µM (inactive) | 45.9 µM (inactive) | 84.1 µM (inactive) | 41.9 µM (inactive) | – | – | – | – |
| COc1cc(O)c2c(c1O)C(=O)c1cc(C)ncc1C2=O | 16.7 µM (inactive) | 14.3 µM (inactive) | 19.2 µM (inactive) | 27 µM (inactive) | 17.7 µM (inactive) | 20.3 µM (inactive) | 20 µM (inactive) | 19 µM (inactive) | > 50 µM (inactive) | 17.9 µM (inactive) | 23 µM (inactive) | 26.5 µM (inactive) | 17 µM (inactive) | 22.3 µM (inactive) | 17.9 µM (inactive) | 18.5 µM (inactive) | – | – | – |
| COc1ccc2nc(-c3cccs3)cc(C(O)CN3CCSCC3)c2c1 (stereo unspecified) | 36.8 µM (inactive) | 18.7 µM (inactive) | 11.9 µM (inactive) | 14.1 µM (inactive) | 2.58 µM (inactive) | 23.6 µM (inactive) | 12.9 µM (inactive) | 27.6 µM (inactive) | – | 25.1 µM (inactive) | 16.8 µM (inactive) | 24.9 µM (inactive) | 30.1 µM (inactive) | 17 µM (inactive) | 22.3 µM (inactive) | 45 µM (inactive) | – | – | – |
| Clc1ccc2[nH]c(CCSCCc3nc4ccc(Cl)cc4[nH]3)nc2c1 | – | 11.4 µM (inactive) | 10.8 µM (inactive) | 12.2 µM (inactive) | 0.491 µM (active) | 19.5 µM (inactive) | 16.8 µM (inactive) | 7.62 µM (inactive) | – | 14.4 µM (inactive) | 13.5 µM (inactive) | – | 10 µM (inactive) | 15.3 µM (inactive) | 15.2 µM (inactive) | 17.5 µM (inactive) | – | – | – |
| CCOC1CCC2C(CCC(/C=C/c3ccc(O)c4ncccc34)N2C)C1 (stereo unspecified) | – | 26.1 µM (inactive) | 4.65 µM (inactive) | 1.99 µM (inactive) | 3.84 µM (inactive) | – | 4.6 µM (inactive) | 24 µM (inactive) | – | 4.78 µM (inactive) | 6.44 µM (inactive) | 29.6 µM (inactive) | 25.1 µM (inactive) | – | 17.4 µM (inactive) | – | > 100 µM (inactive) | 4.23 µM (inactive) | – |
| Cc1cc(Cl)ccc1NC1=NC(=O)C(CC(=O)Nc2ccc(Cl)cc2Cl)S1 (stereo unspecified) | > 100 µM (inactive) | > 100 µM (inactive) | > 100 µM (inactive) | – | – | > 100 µM (inactive) | > 100 µM (inactive) | > 100 µM (inactive) | – | > 100 µM (inactive) | > 100 µM (inactive) | > 100 µM (inactive) | > 100 µM (inactive) | > 100 µM (inactive) | > 100 µM (inactive) | – | – | – | – |
| C/C=C/C=C/C=C/C=C/C(=O)O | > 100 µM (inactive) | > 100 µM (inactive) | > 100 µM (inactive) | > 100 µM (inactive) | > 100 µM (inactive) | > 100 µM (inactive) | > 100 µM (inactive) | > 100 µM (inactive) | > 100 µM (inactive) | > 100 µM (inactive) | > 100 µM (inactive) | > 100 µM (inactive) | > 100 µM (inactive) | > 100 µM (inactive) | > 100 µM (inactive) | > 100 µM (inactive) | – | – | – |
| CC(C)C1=CC23CCC4C(C)(C(=O)O)CCCC4(C)C2CC1C1C(=O)N(c2ccc(N4C(=O)C5C6CC7C8(C)CCCC(C)(C(=O)O)C8CCC7(C=C6C(C)C)C5C4=O)cc2)C(=O)C13 (stereo unspecified) | 5.71 µM (inactive) | 18.5 µM (inactive) | 3.85 µM (inactive) | 4.98 µM (inactive) | 3.4 µM (inactive) | – | 4.35 µM (inactive) | – | 11.2 µM (inactive) | 4.46 µM (inactive) | 13.1 µM (inactive) | 4.49 µM (inactive) | 6.1 µM (inactive) | 13.5 µM (inactive) | 4.17 µM (inactive) | 11.7 µM (inactive) | – | 3.33 µM (inactive) | 4.58 µM (inactive) |
| CC1CC(=O)C(CC(=O)O)[C@H]1C(C(=O)C(=O)Nc1cc(Cl)ccc1Cl)[N+](=O)[O-] (stereo partly specified) | > 100 µM (inactive) | > 100 µM (inactive) | > 100 µM (inactive) | > 100 µM (inactive) | > 100 µM (inactive) | 85.9 µM (inactive) | > 100 µM (inactive) | > 100 µM (inactive) | > 100 µM (inactive) | > 100 µM (inactive) | > 100 µM (inactive) | > 100 µM (inactive) | > 100 µM (inactive) | – | > 100 µM (inactive) | > 100 µM (inactive) | – | – | – |
| Nc1ccc(O)c2c1C(=O)c1c(N)ccc(O)c1C2=O | > 100 µM (inactive) | > 100 µM (inactive) | > 100 µM (inactive) | > 100 µM (inactive) | > 100 µM (inactive) | > 100 µM (inactive) | > 100 µM (inactive) | > 100 µM (inactive) | > 100 µM (inactive) | > 100 µM (inactive) | > 100 µM (inactive) | > 100 µM (inactive) | > 100 µM (inactive) | > 100 µM (inactive) | > 100 µM (inactive) | > 100 µM (inactive) | – | – | – |

Source: ChEMBL document CHEMBL1201862, “PubChem BioAssay data set” (2004)
